Measurements reported in ChEMBL document CHEMBL3046469, “Fungicidal Activities of 2-(Substituted Phenoxymethyl)phenyl-2-methoxyiminoacaetamide Derivatives” (1998).

Key:
Format in all cases: functional
Pyricularia oryzae [1] = experiment: Fungicidal activity against Magnaporthe oryzae assessed as rice blast disease control at 31.3 ppm foliar application for 24 hr before inoculation at 27 +/- 2 degC measured after 5 days by preventive manner
[2] = system: Blumeria graminis f. sp. tritici; experiment: Fungicidal activity against Blumeria graminis f. sp. tritici assessed as wheat powdery mildew disease control at 7.8 ppm foliar application 48 24 hr before inoculation by preventive manner
Podosphaera fuliginea [3] = experiment: Fungicidal activity against Podosphaera fuliginea assessed as cucumber powdery mildew control at 7.8 ppm foliar application 24 hr before inoculation at 23 +/- 2 degC by preventive manner
[4] = system: Pseudoperonospora cubensis; experiment: Fungicidal activity against Pseudoperonospora cubensis assessed as cucumber downy mildew disease control at 31.3 ppm foliar application 24 hr before inoculation onto the adaxial(treated) surface of leaf by preventive manner
[5] = system: Pseudoperonospora cubensis; experiment: Fungicidal activity against Pseudoperonospora cubensis assessed as cucumber downy mildew disease control at 31.3 ppm foliar application 24 hr before inoculation onto the abaxial(untreated) surface of leaf by preventive manner
Botrytis cinerea [6] = experiment: Fungicidal activity against Botryotinia fuckeliana assessed as cucumber gray mold disease control at 7.8 ppm foliar application […] at 22 +/- 2 degC by preventive manner
Thanatephorus cucumeris [7] = experiment: Fungicidal activity against Thanatephorus cucumeris assessed as rice sheath blight disease control at 31.3 ppm foliar application for 24 hr before inoculation at 26 +/- 2 degC measured after 5 days by preventive manner
[8] = system: Pseudoperonospora cubensis; experiment: Fungicidal activity against Pseudoperonospora cubensis assessed as cucumber downy mildew disease control at 2 ppm foliar application 24 hr before inoculation onto the adaxial(treated) surface of leaf by preventive manner
[9] = system: Blumeria graminis f. sp. tritici; experiment: Fungicidal activity against Blumeria graminis f. sp. tritici assessed as wheat powdery mildew disease control at 2 ppm foliar application for 48 hr before inoculation by preventive manner
[10] = system: Pseudoperonospora cubensis; experiment: Fungicidal activity against Pseudoperonospora cubensis assessed as cucumber downy mildew disease control at 125 ppm foliar application 24 hr before inoculation onto the abaxial(untreated) surface of leaf by preventive manner
Podosphaera fuliginea [11] = experiment: Fungicidal activity against Podosphaera fuliginea assessed as cucumber powdery mildew control at 2 ppm foliar application 24 hr before inoculation at 23 +/- 2 degC by preventive manner
Pyricularia oryzae [12] = experiment: Fungicidal activity against Magnaporthe oryzae assessed as rice blast disease control at 2 ppm foliar application for 24 hr before inoculation at 27 +/- 2 degC measured after 5 days by preventive manner
Botrytis cinerea [13] = experiment: Fungicidal activity against Botryotinia fuckeliana assessed as cucumber gray mold disease control at 2 ppm foliar application […] at 22 +/- 2 degC by preventive manner
[14] = system: Pseudoperonospora cubensis; experiment: Fungicidal activity against Pseudoperonospora cubensis assessed as cucumber downy mildew disease control at 7.8 ppm foliar application 24 hr before inoculation onto the abaxial(untreated) surface of leaf by preventive manner
Pyricularia oryzae [15] = experiment: Fungicidal activity against Magnaporthe oryzae assessed as rice blast disease control at 7.8 ppm foliar application for 24 hr before inoculation at 27 +/- 2 degC measured after 5 days by preventive manner
Thanatephorus cucumeris [16] = experiment: Fungicidal activity against Thanatephorus cucumeris assessed as rice sheath blight disease control at 125 ppm foliar application for 24 hr before inoculation at 26 +/- 2 degC measured after 5 days by preventive manner
[17] = system: Blumeria graminis f. sp. tritici; experiment: Fungicidal activity against Blumeria graminis f. sp. tritici assessed as wheat powdery mildew disease control at 125 ppm foliar application for 48 hr before inoculation by preventive manner
Botrytis cinerea [18] = experiment: Fungicidal activity against Botryotinia fuckeliana assessed as cucumber gray mold disease control at 31.3 ppm foliar application […] at 22 +/- 2 degC by preventive manner
Podosphaera fuliginea [19] = experiment: Fungicidal activity against Podosphaera fuliginea assessed as cucumber powdery mildew control at 125 ppm foliar application 24 hr before inoculation at 23 +/- 2 degC by preventive manner
Pyricularia oryzae [20] = experiment: Fungicidal activity against Magnaporthe oryzae assessed as rice blast disease control at 125 ppm foliar application for 24 hr before inoculation at 27 +/- 2 degC measured after 5 days by preventive manner
[21] = system: Blumeria graminis f. sp. tritici; experiment: Fungicidal activity against Blumeria graminis f. sp. tritici assessed as wheat powdery mildew disease control at 31.3 ppm foliar application for 48 hr before inoculation by preventive manner
Podosphaera fuliginea [22] = experiment: Fungicidal activity against Podosphaera fuliginea assessed as cucumber powdery mildew control at 31.3 ppm foliar application 24 hr before inoculation at 23 +/- 2 degC by preventive manner
Botrytis cinerea [23] = experiment: Fungicidal activity against Botryotinia fuckeliana assessed as cucumber gray mold disease control at 125 ppm foliar application […] at 22 +/- 2 degC by preventive manner
[24] = system: Pseudoperonospora cubensis; experiment: Fungicidal activity against Pseudoperonospora cubensis assessed as cucumber downy mildew disease control at 125 ppm foliar application 24 hr before inoculation onto the adaxial(treated) surface of leaf by preventive manner
Botrytis cinerea [25] = experiment: Fungicidal activity against Botryotinia fuckeliana assessed as cucumber gray mold disease control at 125 ppm foliar application […] at 22 +/- 2 degC by curative manner
Pyricularia oryzae [26] = experiment: Fungicidal activity against Magnaporthe oryzae assessed as rice blast disease control at 125 ppm foliar application for 24 hr after inoculation at 27 +/- 2 degC measured after 5 days by curative manner
[27] = system: Blumeria graminis f. sp. tritici; experiment: Fungicidal activity against Blumeria graminis f. sp. tritici assessed as wheat powdery mildew disease control at 125 ppm foliar application for 48 hr after inoculation by curative manner
Podosphaera fuliginea [28] = experiment: Fungicidal activity against Podosphaera fuliginea assessed as cucumber powdery mildew control at 125 ppm foliar application 24 hr after inoculation at 23 +/- 2 degC by curative manner
Thanatephorus cucumeris [29] = experiment: Fungicidal activity against Thanatephorus cucumeris assessed as rice sheath blight disease control at 7.8 ppm foliar application for 24 hr before inoculation at 26 +/- 2 degC measured after 5 days by preventive manner
[30] = system: Pseudoperonospora cubensis; experiment: Fungicidal activity against Pseudoperonospora cubensis assessed as cucumber downy mildew disease control at 7.8 ppm foliar application 24 hr before inoculation onto the adaxial(treated) surface of leaf by preventive manner
Podosphaera fuliginea [31] = experiment: Fungicidal activity against Podosphaera fuliginea assessed as cucumber powdery mildew control at 7.8 ppm foliar application 24 hr after inoculation at 23 +/- 2 degC by curative manner

CNC(=O)/C(=N/OC)c1ccccc1COc1ccc(OC(C)C)cc1
Activity (Pyricularia oryzae [1]): 90%
Activity [2]: 90%
Activity (Podosphaera fuliginea [3]): 90%
Activity [4]: 90%
Activity [5]: 90%
Activity (Botrytis cinerea [6]): 90%
Activity (Thanatephorus cucumeris [7]): 90%

CNC(=O)/C(=N/OC)c1ccccc1COc1ccccc1C
Activity [8]: 90%
Activity (Botrytis cinerea [6]): 90%
Activity [9]: 90%
Activity (Thanatephorus cucumeris [7]): 90%
Activity [10]: 90%
Activity (Podosphaera fuliginea [11]): 90%
Activity (Pyricularia oryzae [12]): 90%

CNC(=O)/C(=N/OC)c1ccccc1COc1ccc(Cl)cc1C
Activity [8]: 90%
Activity (Botrytis cinerea [13]): 90%
Activity [14]: 90%
Activity [9]: 90%
Activity (Thanatephorus cucumeris [7]): 90%
Activity (Pyricularia oryzae [15]): 90%
Activity (Podosphaera fuliginea [11]): 90%

CNC(=O)/C(=N/OC)c1ccccc1COc1ccc(C)c(C)c1
Activity (Podosphaera fuliginea [3]): 90%
Activity [8]: 90%
Activity (Thanatephorus cucumeris [16]): 90%
Activity (Botrytis cinerea [6]): 90%
Activity [9]: 90%
Activity [10]: 90%
Activity (Pyricularia oryzae [15]): 90%

CNC(=O)/C(=N/OC)c1ccccc1COc1cccc(N(C)C)c1
Activity [17]: <90%
Activity [4]: 90%
Activity (Botrytis cinerea [18]): 90%
Activity (Thanatephorus cucumeris [16]): <90%
Activity (Podosphaera fuliginea [19]): <90%
Activity [10]: <90%
Activity (Pyricularia oryzae [20]): 90%

CNC(=O)/C(=N/OC)c1ccccc1COc1cccc(C)c1C
Activity [21]: 90%
Activity [8]: 90%
Activity (Podosphaera fuliginea [22]): 90%
Activity (Botrytis cinerea [18]): 90%
Activity (Thanatephorus cucumeris [16]): 90%
Activity [10]: 90%
Activity (Pyricularia oryzae [12]): 90%

CNC(=O)/C(=N/OC)c1ccccc1COc1c(Cl)ccc(Cl)c1Cl
Activity [17]: 90%
Activity (Botrytis cinerea [23]): 90%
Activity [4]: 90%
Activity (Thanatephorus cucumeris [16]): <90%
Activity (Podosphaera fuliginea [19]): 90%
Activity [10]: <90%
Activity (Pyricularia oryzae [20]): 90%

CNC(=O)/C(=N/OC)c1ccccc1COc1c(Cl)cccc1Cl
Activity [21]: 90%
Activity [24]: <90%
Activity (Botrytis cinerea [23]): 90%
Activity (Thanatephorus cucumeris [16]): <90%
Activity (Podosphaera fuliginea [19]): <90%
Activity [10]: <90%
Activity (Pyricularia oryzae [20]): 90%

CNC(=O)/C(=N\OC)c1ccccc1COc1ccc(Cl)cc1
Activity (Botrytis cinerea [25]): <90%
Activity [17]: 90%
Activity (Pyricularia oryzae [26]): <90%
Activity (Botrytis cinerea [23]): <90%
Activity (Podosphaera fuliginea [19]): 90%
Activity [27]: <90%
Activity (Pyricularia oryzae [20]): <90%
Activity (Podosphaera fuliginea [28]): <90%

CNC(=O)/C(=N\OC)c1ccccc1COc1ccc(-c2ccccc2)cc1
Activity (Botrytis cinerea [25]): <90%
Activity (Podosphaera fuliginea [22]): 90%
Activity [17]: <90%
Activity (Pyricularia oryzae [26]): <90%
Activity (Botrytis cinerea [23]): <90%
Activity [27]: 90%
Activity (Pyricularia oryzae [20]): <90%
Activity (Podosphaera fuliginea [28]): <90%

CNC(=O)/C(=N/OC)c1ccccc1COc1ccc(C)cc1C
Activity (Podosphaera fuliginea [3]): 90%
Activity [8]: 90%
Activity (Botrytis cinerea [13]): 90%
Activity (Thanatephorus cucumeris [29]): 90%
Activity [9]: 90%
Activity [10]: 90%
Activity (Pyricularia oryzae [20]): 90%

CNC(=O)/C(=N/OC)c1ccccc1COc1ccc(Cl)cc1Cl
Activity (Pyricularia oryzae [1]): 90%
Activity (Botrytis cinerea [13]): 90%
Activity (Thanatephorus cucumeris [16]): <90%
Activity [30]: 90%
Activity [5]: 90%
Activity [9]: 90%
Activity (Podosphaera fuliginea [11]): 90%

CNC(=O)/C(=N/OC)c1ccccc1COc1ccc(F)c(F)c1
Activity (Pyricularia oryzae [1]): 90%
Activity [21]: 90%
Activity (Podosphaera fuliginea [22]): 90%
Activity [24]: <90%
Activity (Thanatephorus cucumeris [16]): <90%
Activity (Botrytis cinerea [6]): 90%
Activity [10]: <90%

CNC(=O)/C(=N/OC)c1ccccc1COc1ccccc1C(F)(F)F
Activity (Podosphaera fuliginea [3]): 90%
Activity (Thanatephorus cucumeris [29]): 90%
Activity (Botrytis cinerea [18]): 90%
Activity [30]: 90%
Activity [9]: 90%
Activity [10]: 90%
Activity (Pyricularia oryzae [12]): 90%

CNC(=O)/C(=N/OC)c1ccccc1COc1c(Cl)cc(Cl)cc1Cl
Activity [21]: 90%
Activity [4]: 90%
Activity (Botrytis cinerea [18]): 90%
Activity (Thanatephorus cucumeris [16]): <90%
Activity (Podosphaera fuliginea [19]): 90%
Activity [10]: <90%
Activity (Pyricularia oryzae [20]): 90%

CO/N=C(/C(=O)NN)c1ccccc1COc1cc(C)ccc1C
Activity (Pyricularia oryzae [26]): <90%
Activity (Botrytis cinerea [23]): <90%
Activity (Podosphaera fuliginea [19]): 90%
Activity (Pyricularia oryzae [20]): 90%
Activity (Podosphaera fuliginea [28]): <90%

CNC(=O)/C(=N\OC)c1ccccc1COc1ccccc1
Activity (Botrytis cinerea [25]): <90%
Activity [17]: 90%
Activity (Pyricularia oryzae [26]): <90%
Activity (Botrytis cinerea [23]): <90%
Activity (Podosphaera fuliginea [19]): 90%
Activity [27]: <90%
Activity (Pyricularia oryzae [20]): <90%
Activity (Podosphaera fuliginea [28]): <90%

CNC(=O)/C(=N/OC)c1ccccc1COc1ccccc1OC(C)C
Activity [17]: <90%
Activity (Botrytis cinerea [23]): <90%
Activity [4]: 90%
Activity (Thanatephorus cucumeris [16]): <90%
Activity (Podosphaera fuliginea [19]): 90%
Activity [10]: <90%
Activity (Pyricularia oryzae [20]): 90%

CNC(=O)/C(=N/OC)c1ccccc1COc1cccc(-c2ccccc2)c1
Activity [2]: 90%
Activity [8]: 90%
Activity (Botrytis cinerea [13]): 90%
Activity [14]: 90%
Activity (Thanatephorus cucumeris [7]): 90%
Activity (Podosphaera fuliginea [11]): 90%
Activity (Pyricularia oryzae [12]): 90%

CNC(=O)/C(=N/OC)c1ccccc1COc1cc(C)cc(C)c1C
Activity [8]: 90%
Activity (Botrytis cinerea [13]): 90%
Activity (Thanatephorus cucumeris [29]): 90%
Activity [9]: 90%
Activity [10]: 90%
Activity (Pyricularia oryzae [15]): 90%
Activity (Podosphaera fuliginea [11]): 90%

CNC(=O)/C(=N/OC)c1ccccc1COc1cccc(C(F)(F)F)c1
Activity (Podosphaera fuliginea [3]): 90%
Activity (Thanatephorus cucumeris [16]): 90%
Activity [14]: 90%
Activity [30]: 90%
Activity (Botrytis cinerea [6]): 90%
Activity [9]: 90%
Activity (Pyricularia oryzae [15]): 90%

CNC(=O)/C(=N/OC)c1ccccc1COc1ccc(C#N)cc1
Activity [17]: 90%
Activity [4]: 90%
Activity (Botrytis cinerea [18]): 90%
Activity (Thanatephorus cucumeris [16]): <90%
Activity (Podosphaera fuliginea [19]): <90%
Activity [10]: 90%
Activity (Pyricularia oryzae [20]): <90%

CNC(=O)/C(=N\OC)c1ccccc1COc1cccc(OC(C)C)c1
Activity (Botrytis cinerea [25]): <90%
Activity (Podosphaera fuliginea [22]): 90%
Activity [17]: <90%
Activity (Pyricularia oryzae [26]): <90%
Activity (Botrytis cinerea [23]): 90%
Activity [27]: 90%
Activity (Pyricularia oryzae [20]): 90%
Activity (Podosphaera fuliginea [28]): 90%

CO/N=C(/C(=O)N(C)C)c1ccccc1COc1cc(C)ccc1C
Activity (Pyricularia oryzae [1]): 90%
Activity (Botrytis cinerea [25]): <90%
Activity (Podosphaera fuliginea [22]): 90%
Activity (Podosphaera fuliginea [31]): 90%
Activity (Pyricularia oryzae [26]): 90%
Activity (Botrytis cinerea [23]): 90%

CO/N=C(/C(=O)NOC)c1ccccc1COc1cc(C)ccc1C
Activity (Botrytis cinerea [25]): <90%
Activity (Podosphaera fuliginea [31]): 90%
Activity (Pyricularia oryzae [26]): <90%
Activity (Botrytis cinerea [23]): 90%
Activity (Podosphaera fuliginea [19]): <90%
Activity (Pyricularia oryzae [20]): 90%

CNC(=O)/C(=N/OC)c1ccccc1COc1ccc(Cl)c(C)c1
Activity (Podosphaera fuliginea [3]): 90%
Activity [8]: 90%
Activity (Thanatephorus cucumeris [16]): <90%
Activity [14]: 90%
Activity (Botrytis cinerea [6]): 90%
Activity [9]: 90%
Activity (Pyricularia oryzae [15]): 90%
